In the test the test system is recombinant rabies virus 1088 strain (1088/GLuc). Briefly: microbe, parasite or virus in culture. In kind it is cell-based, rabies virus in Neuro-2a cells. Particulars: read-out: Anti-rabies activity.

Read-outs that look alike come from different tables or passages of the source. A value given as a limit tells only on which side of the number the result lay.

For the compound `COc1ccc(CN2C[C@H]3C[C@]4(C(=O)NCc5ccccc5)NC(=O)[C@H]3[C@H]2[C@H]4CC(C)C)cc1` (relative stereo) [IF-6, (3S*, 3aR*, 6S*, 7R*, 7aR*) —N-benzyl-7-isobutyl-1-(4-methoxybenzyl)-4-oxooctahydro-6H-3,6-methanopyrrolo[3,2-c]pyridine-6-carboxamide], where the note is “Lyssavirus rabies, N2a, 72 h”, the IC50 was less than 10 µM. Turning to `COc1ccc(CN2CC3CC4(C(=O)NCc5ccccc5)NC(=O)C3C2C4CC(C)C)cc1F` (stereo not shown) [IF-801], the IC50 (Lyssavirus rabies, N2a, 72 h) is less than 10 µM.

Take `CC(C)CC(=O)OCC1=CCN2C3CC(NC(=O)Cc4ccccc4)C1C2CN(Cc1ccccc1)C3` (stereo not shown) [12aab]: under “Lyssavirus rabies, N2a, 72 h”, the IC50 is less than 10 µM.

For the compound `COc1ccc(CN2C[C@@H]3C[C@H]4C(=O)N[C@]3(C(=O)NCc3ccccc3)[C@@H]2[C@@H]4CC(C)C)cc1` (relative stereo) [IB-5, (3S, 3aS, 6R′, 7R*, 7aS*) —N-benzyl-7-isobutyl-1-(4-methoxybenzyl)-5-oxooctahydro-3@H-3,6-methanopyrrolo[3,2-b]pyridine-3a-carboxamide], the IC50 was less than 10 µM.

(Values after patent US20250304616A1, “NOVEL PEPT[…] AND DESIGN” (priority 2020, published 2025).)
